From patent US12133846B2, “Electrophilic androgen receptor (AR) antagonists for AR downregulation and ferroptosis induction in cancer cells” (priority 2019, dated 2024)

How the values were obtained:
[1] = system: C4-2 cells; assay: Colony formation assay, C4-2 cells; type: cell-based; settings: 2-63 2.5 μM plus BSO 5 μM, 24 h, then drug-free medium 8 days
Description: Colony formation assay. Cells (22Rv1 or C4-2) were seeded in six-well plates (1,000/well) and cultured overnight. Cells were then treated with 2-63 (1 μM in 22Rv1; 2.5 μM in C4-2), BSO (5 μM) alone or in combination for 24 h. Cells were washed and cultured in a drug-free medium (22Rv1, 11 days; C4-2, 8 days). On the last day, the medium was removed, cells were washed with PBS and fixed with methanol. The colonies were stained with crystal violet solution for 3 h at room temperature and air-dried.

[2] = system: AR, AR-V7, c-Myc, HO-1, Hsp70; assay: Western blotting under BSO combination, VCaP cells; type: cell-based; settings: VCaP, 2-63 2.5 μM plus BSO 100 μM
Description: It was first investigated if iron chelators or antioxidants could rescue the viability of drug combination-treated cells. […] HO-1 catalyzes the decomposition of heme into carbon monoxide, biliverdin, and Fe^2+. […] Both Fer-1 and the lipophilic antioxidant α-Toc can effectively scavenge radicals in phosphatidylcholine lipid bilayers and break the redox cycle that generates lipid hydroperoxide.
(§1) Western Blotting. […] Proteins in cell lysates (40 μg) were separated using electrophoresis on SDS-PAGE and transferred onto PVDF (polyvinylidenedifluoride) membranes. Membranes were blocked in 5% fat-free milk followed by incubation with primary antibodies overnight at 4° C., and the secondary horseradish peroxidase-conjugated anti-rabbit or anti-mouse antibodies. The blots were developed in the Enhanced Chemiluminescence mixture and detected by ImageQuant™ LAS 4000 imaging system (GE). Density of protein bonds were calculated and analyzed by using imageJ software downloaded from the National Institute of Health website.

[3] = system: 22Rv1 cells; assay: BSO pretreatment plus drug, MTT viability, 22Rv1 cells
Description: Cell viability was then assessed using an MTT assay.
PCa cells (6×10^3 cells/well) were seeded into 96-well plates overnight and then treated with indicated compounds at indicated concentrations and time durations. The MTT (3-(4, 5-Dimethylthiazol-2-yl)-2,5-diphenyltetrazolium bromide) assay was performed according to the standard protocol. Briefly, MTT (0.5 mg/mL) was incubated with cells at 37° C. for 3 hours. Supernatant was removed, followed by the addition of dimethyl DMSO (100 μl). After incubation for 30 minutes at 37° C., absorbance was read at 570 nm on a microplate reader.

[4] = 2-63 releases 12b in aqueous buffer (HPLC); type: physicochemical; settings: PBS buffer; 2-63 50 μM, PBS pH 7.4, 5% acetonitrile, 37° C., from HPLC peak area; read-out: half-life of 2-63 (decomposition, release of free ITC 12b) (converted)
Description: NAC conjugate 2-63 gradually releases free ITC 12b under physiological condition. The NAC conjugate of ITC could reversibly form free ITCs in aqueous solution (Zhang, Y., Carcinogenesis 2012, 33, 2-9). To test this possibility on the setting of ITC-ARi, 2-63 (50 μM) was dissolved in PBS at physiological pH (7.4), and its decomposition was monitored at 37° C. using HPLC. […] 2-63, therefore, can be viewed as a more water-soluble prodrug of 12b when it is used in cell culture or administrated in vivo. This NAC conjugation approach avoids acute/instant electrophilic insult and can constrain the concentration of electrophilic ITC within certain levels. Since non-cancerous cells usually have a larger GSH/antioxidant pool to neutralize electrophilic/oxidative attack (Trachootham, et al., Cancer Cell 2006, 10, 241-252), different tolerability to 2-63 could be seen between cancerous and noncancerous cells.
2-63 releases 12b in aqueous buffer. Samples for HPLC analysis were prepared by diluting the stock solution (50 mM in DMSO) of 2-63 in PBS buffer (10 mM, pH 7.4) containing 5% acetonitrile. The sample was immediately analyzed right after dilution. The aliquot of incubated samples (37° C.) was analyzed at indicated time points. A linear plot of the log (peak area) versus incubation time was generated to determine the half-life (T1/2) of decomposition. […]

[5] = system: acetylation of α-tubulin and histone H3 (markers for HDAC6 and nuclear HDAC inhibition); assay: Western blotting of acetylation markers in VCaP cells; type: cell-based; settings: 16 h, 2-63 and 12b 5 and 15 μM, SAHA 1 μM
Description: as §1

[6] = system: FL AR and AR-V7; assay: Cycloheximide chase of AR protein stability in VCaP cells; type: cell-based; settings: cycloheximide 25 μg/mL, 2-63 10 μM, 2-16 h
Description: FL AR is a client protein of Hsp90, and AR-V7 might be chaperoned by Hsps other than Hsp90 (Moses, et al., Cancer Res. 2018, 78, 4022-4035). Because Hsp70 upregulation is an indicator of heat shock protein disruption (Kitson, et al., Nat. Chem. 2013, 5, 307-314) that causes client protein degradation, it was assessed whether 2-63 could change the protein stability of AR and AR-V7. […] 2-63-induced AR/AR-V7 downregulation was partially rescued by the proteasome inhibitor MG-132 (data not shown). This supports the involvement of proteasome degradation in AR reduction. Besides the posttranslational mechanisms, AR downregulation could also be caused by suppressing transcription factors (TFs) that drive the transcription of the AR gene. Sp1 and c-Myc were selected as representatives that could be affected by 2-63. Multiple Sp1 binding sites are located near the transcriptional initiation region of the AR gene.
Western Blotting. […] The protein concentration of supernatants was determined using the Pierce BCA Protein Assay Kit (Thermo Fisher, Cat #23225). […] The blots were developed in the Enhanced Chemiluminescence mixture and detected by ImageQuant™ LAS 4000 imaging system (GE). Density of protein bonds were calculated and analyzed by using imageJ software downloaded from the National Institute of Health website.

CC(=O)N[C@H](CSC(=S)NCCCCCCc1ccc(N2C(=S)N(c3ccc(C#N)c(C(F)(F)F)c3)C(=O)C2(C)C)cn1)C(=O)O [2-63, N-acetyl-S-((6-(5-(3-(4-cyano-3-(trifluoromethyl)phenyl)-5,5-dimethyl-4-oxo-2-thioxoimidazolidin-1-yl)pyridine-2-yl)hexyl)carbamothioyl)-D-cysteine]
colony formation of C4-2 cells [1]: very efficiently suppressed colony formation
AR/AR-V7, c-Myc and HO-1 expression versus individual drugs [2]: more effectively downregulated AR/AR-V7 and c-Myc and upregulated the cellular stress marker HO-1
combinatorial effect with BSO (interaction index), 22Rv1 ([3]; BSO 2.5-10 μM 16 h pretreatment, then 2-63 1-10 μM 24 h, synergism = index <0.8): synergistically reduced viability
cytotoxicity at 5 µM ([3]; Homo sapiens, 22Rv1, 24 h, read-out: viability reduction, 22Rv1 cells): 65%
half-life at 50 μM [4]: 3.4 h
histone H3 acetylation [5]: did not show significant effects
α-tubulin acetylation ([5]; SFN 15 μM): did not show significant effects
stability of FL AR and AR-V7 proteins [6]: significantly reduced
